Reference: US20120142672A1, “HETEROCYCLIC COMPOUND AND USE THEREOF” (priority 2009, published 2012)
Read-outs that look alike come from different tables or passages of the source.

Test system: Aβ42 production
Assay: Measurement of amyloid β production inhibition rate using primary nerve cell
Type: cell-based
Settings: primary nerve cells from cerebral cortex of SD rat fetus, cultured 3 days with compound, sandwich ELISA BNT77-BC05 of culture supernatant, read-out: Aβ42 production inhibitory activity IC50
Method: (1) Measurement of Amyloid β Production Inhibition Rate Using Primary Nerve Cell
The primary nerve cells were collected from the cerebral cortex of rat fetus (CLEA Japan, Inc.: SD rat, fetal life 17 days of age), and suspended in a neurobasal medium containing B27 supplement, L-glutamine, penicillin-streptomycin (manufactured by Invitrogen) at 500,000 cells/mL. Then, the suspension was seeded in poly L-lysine-coated 96 well plate (manufactured by SUMITOMO BAKELITE) by 100 μL, and cultured at 37° C., 5% CO2 for 7 days. The medium was completely removed, and a new neurobasal medium was added at 75 μL/well. Thereto was added (75 μL/well) a neurobasal medium supplemented with a 2-fold measurement concentration of an evaluation target compound, and the cells were cultured for 3 days. The culture supernatant was collected from each well, diluted as appropriate, applied to sandwich ELISA between BNT77 antibody-BA27 antibody (for Aβ40) and sandwich ELISA between BNT77 antibody-BC05 antibody (for Aβ42), and the amounts of Aβ40 and Aβ42 were measured.
The amyloid β production inhibition rate (%) of the compound was calculated by the following formula.
(1−(amyloid β production amount with addition of compound)/(amyloid β production amount without addition of compound))×100

SMILES	IC50 (Rattus norvegicus, 72 h) [µM]	IC50 [µM]
COc1cc(-c2nnc3n2CCCC3Oc2ccc(Cl)c(Cl)c2)ccc1-c1cnc(C)o1 (centres unmarked) [Example 25, 8-(3,4-dichlorophenoxy)-3-[3-methoxy-4-(2-methyl-1,3-oxazol-5-yl)phenyl]-5,6,7,8-tetrahydro[1,2,4]triazolo[4,3-a]pyridine]	0.088	
COc1cc(-c2nc3n(n2)CCCC3c2ccccc2C(F)(F)F)ccc1-c1cnc(C)o1 (centres unmarked) [Example 12, 2-[3-methoxy-4-(2-methyl-1,3-oxazol-5-yl)phenyl]-8-[2-(trifluoromethyl)phenyl]-5,6,7,8-tetrahydro[1,2,4]triazolo[1,5-a]pyridine]	0.15	
COc1cc(-c2nnc3n2CCCC3c2ccccc2C(F)(F)F)ccc1-c1cnc(C)o1 (centres unmarked) [Example 8, 3-[3-methoxy-4-(2-methyl-1,3-oxazol-5-yl)phenyl]-8-[2-(trifluoromethyl)phenyl]-5,6,7,8-tetrahydro[1,2,4]triazolo[4,3-a]pyridine]	0.088	
COc1cc(-c2nnc3n2CCCC3c2ccc(F)cc2C(F)(F)F)ccc1-c1cnc(C)o1 (centres unmarked) [Example 28, 8-[4-fluoro-2-(trifluoromethyl)phenyl]-3-[3-methoxy-4-(2-methyl-1,3-oxazol-5-yl)phenyl]-5,6,7,8-tetrahydro[1,2,4]triazolo[4,3-a]pyridine]	0.2	
COc1cc(-c2nnc3n2CCC[C@@H]3c2ccc(Cl)cc2C(F)(F)F)ccc1-c1cnc(C)o1 [Example 34, (R)-(+)-8-[4-chloro-2-(trifluoromethyl)phenyl]-3-[3-methoxy-4-(2-methyl-1,3-oxazol-5-yl)phenyl]-5,6,7,8-tetrahydro[1,2,4]triazolo[4,3-a]pyridine]	0.042	

More lines, now with the values ahead:

IC50 (Rattus norvegicus, 72 h) [µM]	IC50 [µM]	SMILES
	0.034	COc1cc(-c2nnc3n2CCCC3c2ccc(Cl)c(Cl)c2)ccc1-c1cnc(C)o1 (single isomer, unassigned; (+)) [Example 2, (+)-8-(3,4-dichlorophenyl)-3-[3-methoxy-4-(2-methyl-1,3-oxazol-5-yl)phenyl]-5,6,7,8-tetrahydro[1,2,4]triazolo[4,3-a]pyridine]
0.17		COc1cc(-c2nnc3n2CCCCC3c2ccc(Cl)c(Cl)c2)ccc1-c1cnc(C)o1 (centres unmarked) [Example 15, 9-(3,4-dichlorophenyl)-3-[3-methoxy-4-(2-methyl-1,3-oxazol-5-yl)phenyl]-6,7,8,9-tetrahydro-5H-[1,2,4]triazolo[4,3-a]azepine]
	0.09	COc1cc(-c2nnc3n2CCCC3c2ccc(Cl)c(Cl)c2)ccc1-c1cnc(C)o1 (centres unmarked) [Example 1, 8-(3,4-dichlorophenyl)-3-[3-methoxy-4-(2-methyl-1,3-oxazol-5-yl)phenyl]-5,6,7,8-tetrahydro[1,2,4]triazolo[4,3-a]pyridine]
